Data: ChEMBL document CHEMBL5053510, “Discovery of AS-1763: A Potent, Selective, Noncovalent, and Orally Available Inhibitor of Bruton's Tyrosine Kinase” (J Med Chem, 2021)

Tests used:
OCI-Ly10 = experiment: Antiproliferative activity against human OCILY10 cells harboring BTK C481S mutant […] gene assessed as reduction in cell viability after 96 hrs; assay type: functional, cell-based; details: OCI-Ly10, 96 h
[1] = target: Tyrosine-protein kinase BTK (Homo sapiens, UniProt Q06187); experiment: Inhibition of human BTK-A using phosphorylated substrate in presence of ATP by microplate reader assay
Sequence of Tyrosine-protein kinase BTK (Q06187 whole entry): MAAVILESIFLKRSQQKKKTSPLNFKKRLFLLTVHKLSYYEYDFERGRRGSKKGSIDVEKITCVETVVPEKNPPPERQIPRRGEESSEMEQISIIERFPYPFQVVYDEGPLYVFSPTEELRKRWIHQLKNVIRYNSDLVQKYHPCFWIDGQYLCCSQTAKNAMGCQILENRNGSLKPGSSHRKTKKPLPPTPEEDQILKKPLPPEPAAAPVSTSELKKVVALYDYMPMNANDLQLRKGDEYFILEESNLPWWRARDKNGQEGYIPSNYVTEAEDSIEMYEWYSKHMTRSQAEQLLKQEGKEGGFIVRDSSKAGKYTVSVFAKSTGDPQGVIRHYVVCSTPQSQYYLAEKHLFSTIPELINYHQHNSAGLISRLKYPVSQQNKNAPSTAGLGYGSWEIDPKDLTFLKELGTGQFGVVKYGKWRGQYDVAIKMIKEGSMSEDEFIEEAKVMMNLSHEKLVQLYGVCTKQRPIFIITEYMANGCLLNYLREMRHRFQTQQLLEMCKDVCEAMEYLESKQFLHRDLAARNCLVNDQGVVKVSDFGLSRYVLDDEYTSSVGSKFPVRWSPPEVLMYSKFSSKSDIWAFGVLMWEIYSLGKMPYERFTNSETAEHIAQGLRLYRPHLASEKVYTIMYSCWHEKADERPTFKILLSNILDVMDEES

IC50 [1] [nM]	Compound	IC50 (OCI-Ly10) [nM]
–	C=CC(=O)N1CCC[C@@H](n2nc(-c3ccc(Oc4ccccc4)cc3)c3c(N)ncnc32)C1 [IBRUTINIB]	1030
2.1	Nc1nc(-c2cccc(-n3ccc4cc(C5CC5)cc(F)c4c3=O)c2CO)c2cc(-c3cccnc3)[nH]c2n1	–
49	Cc1cc2c(-c3cccc(-n4ccc5cc(C6CC6)cc(F)c5c4=O)c3CO)nc(N)nc2[nH]1	–
